According to patent publication US20250171420A1 (Monte Rosa Therapeutics, Inc., priority 2022, published 2025):

Molecular target: T1, CK1α (Homo sapiens, UniProt P48729)
T1 construct: HEK293 clonal lines with CRISPR KI HiBiT tag on CSNK1A1
Assay: CK1α NanoBit Assay (HiBiT-tagged CSNK1A1, HEK293 clonal lines)
Format: cell-based
Conditions: HEK293 HiBiT-CSNK1A1/LgBiT cells, 24 h incubation
Procedure: HEK293 clonal lines with CRISPR KI HiBiT tag on CSNK1A1 and stably expressing LgBiT protein were obtained from Promega (Madison, WI). […] Cells were incubated at 37° C., 5% CO2 for 24 hours and then signal was read on a Pherastar FSX using “LUM plus” optic module.
Data analysis was performed in Scinamic (Scinamic, Cambridge, MA). Luminescence response (R) was calculated by the formula: response=100*(S−N)/(P−N) where S is the signal of the well, N and P the mean negative and positive control values respectively of the same plate.
DC50 data are reported in Table 2 for compounds in Table 1. In Table 2 below, According to the code, A represents a DC50 value of ≤0.1 μM, B represents a DC50 value>0.1 μM and ≤1 μM, C represents an DC50 value>1 μM.

T1 sequence (P48729 whole entry): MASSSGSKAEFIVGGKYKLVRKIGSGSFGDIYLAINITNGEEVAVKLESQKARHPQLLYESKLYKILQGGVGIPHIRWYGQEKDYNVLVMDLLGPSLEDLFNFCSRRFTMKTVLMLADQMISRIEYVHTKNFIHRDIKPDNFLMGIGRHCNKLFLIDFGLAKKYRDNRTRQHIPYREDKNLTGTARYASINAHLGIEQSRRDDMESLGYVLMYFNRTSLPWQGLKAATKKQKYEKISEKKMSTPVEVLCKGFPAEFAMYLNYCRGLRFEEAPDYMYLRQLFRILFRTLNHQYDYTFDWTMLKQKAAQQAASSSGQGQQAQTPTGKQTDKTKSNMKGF
T1 sequence (Q96SW2 whole entry, further chain): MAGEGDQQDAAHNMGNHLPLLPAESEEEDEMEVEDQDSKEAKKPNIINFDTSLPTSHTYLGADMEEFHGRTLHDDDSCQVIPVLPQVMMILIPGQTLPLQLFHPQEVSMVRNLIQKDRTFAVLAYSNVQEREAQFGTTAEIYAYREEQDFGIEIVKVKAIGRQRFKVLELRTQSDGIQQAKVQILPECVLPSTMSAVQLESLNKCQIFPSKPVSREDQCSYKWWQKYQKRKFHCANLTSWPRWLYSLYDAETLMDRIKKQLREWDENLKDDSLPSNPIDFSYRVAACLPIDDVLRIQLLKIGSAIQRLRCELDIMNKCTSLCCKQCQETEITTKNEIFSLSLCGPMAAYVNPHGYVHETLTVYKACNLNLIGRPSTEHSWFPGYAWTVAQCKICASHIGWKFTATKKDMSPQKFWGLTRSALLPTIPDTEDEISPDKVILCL
T1 sequence (Q16531 2-1140 partner limits assumed): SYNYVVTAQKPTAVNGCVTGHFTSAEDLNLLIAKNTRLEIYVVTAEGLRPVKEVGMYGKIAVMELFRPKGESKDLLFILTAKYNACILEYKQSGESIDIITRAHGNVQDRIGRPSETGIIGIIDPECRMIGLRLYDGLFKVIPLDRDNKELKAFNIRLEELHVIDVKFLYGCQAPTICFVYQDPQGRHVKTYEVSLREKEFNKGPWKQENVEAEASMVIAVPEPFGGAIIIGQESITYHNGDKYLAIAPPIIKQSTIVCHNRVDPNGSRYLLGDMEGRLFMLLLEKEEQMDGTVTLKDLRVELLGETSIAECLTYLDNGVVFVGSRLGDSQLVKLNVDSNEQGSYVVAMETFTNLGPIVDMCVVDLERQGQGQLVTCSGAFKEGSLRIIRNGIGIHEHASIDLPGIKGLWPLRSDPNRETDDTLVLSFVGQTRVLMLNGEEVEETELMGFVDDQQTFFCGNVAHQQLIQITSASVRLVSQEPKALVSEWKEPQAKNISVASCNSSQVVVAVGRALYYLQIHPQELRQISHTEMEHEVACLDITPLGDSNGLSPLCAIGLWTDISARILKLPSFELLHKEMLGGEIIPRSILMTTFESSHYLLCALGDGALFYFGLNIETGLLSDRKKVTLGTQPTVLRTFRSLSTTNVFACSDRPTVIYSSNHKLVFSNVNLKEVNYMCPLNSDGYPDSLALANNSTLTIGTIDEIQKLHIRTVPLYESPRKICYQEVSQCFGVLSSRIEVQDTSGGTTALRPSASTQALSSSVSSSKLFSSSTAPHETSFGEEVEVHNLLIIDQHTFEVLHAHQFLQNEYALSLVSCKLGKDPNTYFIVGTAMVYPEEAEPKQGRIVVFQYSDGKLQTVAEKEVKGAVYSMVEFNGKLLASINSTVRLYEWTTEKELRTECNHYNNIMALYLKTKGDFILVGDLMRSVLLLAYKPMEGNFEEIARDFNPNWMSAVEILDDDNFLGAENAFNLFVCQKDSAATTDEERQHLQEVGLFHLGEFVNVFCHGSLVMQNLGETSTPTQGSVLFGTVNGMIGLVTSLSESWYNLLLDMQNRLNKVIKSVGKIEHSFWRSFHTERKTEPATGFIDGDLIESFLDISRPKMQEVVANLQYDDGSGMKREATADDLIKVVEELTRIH

In the case of `C[C@@H]1Cc2cc(F)ccc2N1C(=O)Nc1ccc2c(c1)CN(C1CCC(=O)NC1=O)C2=O` (stereo partly drawn) [Compound 363, (2R)—N-(2-(2,6-dioxopiperidin-3-yl)-1-oxoisoindolin-5-yl)-5-fluoro-2-methylindoline-1-carboxamide], the DC50 was < 0.1 µM.
With `Cc1ccc2c(c1)CCCN2C(=O)Nc1ccc2c(c1)CN(C1CCC(=O)NC1=O)C2=O` (stereo not shown) [Compound 140] the DC50 was < 0.1 µM.
For `O=C1CCC(N2Cc3cc(NC(=O)N4CCCC5(CCC5)C4)ccc3C2=O)C(=O)N1` (stereo not shown) [Compound 255], the DC50 was < 0.1 µM.
With `CC(C)[C@]12C[C@H]1CN(C(=O)Nc1ccc3c(c1)CN(C1CCC(=O)NC1=O)C3=O)C2` (stereo partly shown) [Compound 235] the DC50 was < 0.1 µM.
Work on `N#Cc1cccc2c1CN(C(=O)Nc1ccc3c(c1)CN(C1CCC(=O)NC1=O)C3=O)C2` (stereo not shown) [Compound 213] yielded a DC50 of 0.1 to 1 µM.
`CC1Cc2ccccc2N1C(=O)Nc1ccc2c(c1)CN(C1CCC(=O)NC1=O)C2=O` (stereo not shown) [Compound 138] was tested, and the DC50 was < 0.1 µM.
In the case of `O=C1CCC(N2Cc3cc(NC(=O)N4Cc5cccc(Cl)c5C4)ccc3C2=O)C(=O)N1` (stereo not shown) [Compound 182], the DC50 was < 0.1 µM.
`O=C1CCC(N2Cc3cc(NC(=O)N4CCN(C56CC(C5)C6)CC4)ccc3C2=O)C(=O)N1` (stereo not shown) [Compound 234] was tested, and the DC50 was > 1 µM.
With `CCC1c2ccccc2CN1C(=O)Nc1ccc2c(c1)CN(C1CCC(=O)NC1=O)C2=O` (stereo not shown) [Compound 208] the DC50 was < 0.1 µM.
Work on `CCC1(c2ccccc2)CN(C(=O)Nc2ccc3c(c2)CN(C2CCC(=O)NC2=O)C3=O)C1` (stereo not shown) [Compound 252] yielded a DC50 of 0.1 to 1 µM.
In the case of `O=C1CCC(N2Cc3cc(NC(=O)N4CC5[C@@H](CCN5c5ccccc5)C4)ccc3C2=O)C(=O)N1` (stereo partly shown) [Compound 236], the DC50 was 0.1 to 1 µM.
For `Cc1cccc2c1CCCN2C(=O)Nc1ccc2c(c1)CN(C1CCC(=O)NC1=O)C2=O` (stereo not shown) [Compound 122], the DC50 was 0.1 to 1 µM.
With `O=C1CCC(N2Cc3cc(NC(=O)N4CCc5ccccc5C4C(F)(F)F)ccc3C2=O)C(=O)N1` (stereo not shown) [Compound 130] the DC50 was < 0.1 µM.
`O=C1CCC(N2Cc3cc(NC(=O)N4CCCc5cccc(F)c54)ccc3C2=O)C(=O)N1` (stereo not shown) [Compound 157] was tested, and the DC50 was 0.1 to 1 µM.
In the case of `Cn1cc(N2CCN(C(=O)Nc3ccc4c(c3)CN(C3CCC(=O)NC3=O)C4=O)CC2)cn1` (stereo not shown) [Compound 243], the DC50 was > 1 µM.
`Cc1cc(C)c2c(n1)CN(C(=O)Nc1ccc3c(c1)CN(C1CCC(=O)NC1=O)C3=O)C2` (stereo not shown) [Compound 118] was tested, and the DC50 was < 0.1 µM.
With `Cc1ccc2c(c1)CN(C(=O)Nc1ccc3c(c1)CN(C1CCC(=O)NC1=O)C3=O)C2` (stereo not shown) [Compound 175] the DC50 was < 0.1 µM.
`Cc1cccc(C2(O)CN(C(=O)Nc3ccc4c(c3)CN(C3CCC(=O)NC3=O)C4=O)C2)c1` (stereo not shown) [Compound 225] was tested, and the DC50 was > 1 µM.
`CC1CN(c2ccccc2)CCN1C(=O)Nc1ccc2c(c1)CN(C1CCC(=O)NC1=O)C2=O` (stereo not shown) [Compound 257] showed a DC50 of 0.1 to 1 µM.
With `O=C1CCC(N2Cc3cc(NC(=O)N4CC(c5cccc(F)c5)C4)ccc3C2=O)C(=O)N1` (stereo not shown) [Compound 238] the DC50 was 0.1 to 1 µM.
With `N#Cc1ccc(C2CN(C(=O)Nc3ccc4c(c3)CN(C3CCC(=O)NC3=O)C4=O)C2)cc1` (stereo not shown) [Compound 244] the DC50 was 0.1 to 1 µM.
In the case of `CC1(C)CN(C(=O)Nc2ccc3c(c2)CN(C2CCC(=O)NC2=O)C3=O)Cc2ccccc21` (stereo not shown) [Compound 200], the DC50 was < 0.1 µM.
`O=C1CCC(N2Cc3cc(NC(=O)N4Cc5ccc(C(F)F)cc5C4)ccc3C2=O)C(=O)N1` (stereo not shown) [Compound 168] was tested, and the DC50 was < 0.1 µM.
For `N#Cc1cccc2c1CCN(C(=O)Nc1ccc3c(c1)CN(C1CCC(=O)NC1=O)C3=O)C2` (stereo not shown) [Compound 176], the DC50 was 0.1 to 1 µM.
`O=C1CCC(N2Cc3cc(NC(=O)N4CCCC5CC54)ccc3C2=O)C(=O)N1` (stereo not shown) [Compound 276] was tested, and the DC50 was 0.1 to 1 µM.
For `Cc1cccc(N2CCN(C(=O)Nc3ccc4c(c3)CN(C3CCC(=O)NC3=O)C4=O)CC2)c1` (stereo not shown) [Compound 265], the DC50 was 0.1 to 1 µM.
`O=C1CCC(N2Cc3cc(NC(=O)N4CCC(c5ccccn5)C4)ccc3C2=O)C(=O)N1` (stereo not shown) [Compound 263] was tested, and the DC50 was 0.1 to 1 µM.
With `O=C1CCC(N2Cc3cc(NC(=O)N4CCc5ccc(F)cc5C4)ccc3C2=O)C(=O)N1` (stereo not shown) [Compound 180] the DC50 was < 0.1 µM.
With `O=C1CCC(N2Cc3cc(NC(=O)N4CCN(c5cccnc5)CC4)ccc3C2=O)C(=O)N1` (stereo not shown) [Compound 249] the DC50 was > 1 µM.
`O=C1CCC(N2Cc3cc(NC(=O)N4CCc5ncccc54)ccc3C2=O)C(=O)N1` (stereo not shown) [Compound 108, N-(2-(2,6-dioxopiperidin-3-yl)-1-oxoisoindolin-5-yl)-2,3-dihydro-1H-pyrrolo[3,2-b]pyridine-1-carboxamide] gave a DC50 of 0.1 to 1 µM.
`O=C1CCC(N2Cc3cc(NC(=O)N4CC(c5cccc(Cl)c5)C4)ccc3C2=O)C(=O)N1` (stereo not shown) [Compound 268] was tested, and the DC50 was < 0.1 µM.
In the case of `COc1ccc2c(c1)CN(C(=O)Nc1ccc3c(c1)CN(C1CCC(=O)NC1=O)C3=O)C2` (stereo not shown) [Compound 199], the DC50 was < 0.1 µM.
With `O=C1CCC(N2Cc3cc(NC(=O)N4CCC(C5CC5)C4)ccc3C2=O)C(=O)N1` (stereo not shown) [Compound 277] the DC50 was < 0.1 µM.
Compound `O=C1CCC(N2Cc3cc(NC(=O)N4Cc5ccccc5C(n5cccn5)C4)ccc3C2=O)C(=O)N1` (stereo not shown) [Compound 206] has a DC50 of 0.1 to 1 µM.
For `O=C1CCC(N2Cc3cc(NC(=O)N4CCCCC4C(F)(F)F)ccc3C2=O)C(=O)N1` (stereo not shown) [Compound 219], the DC50 was < 0.1 µM.
With `O=C1CCC(N2Cc3cc(NC(=O)N4CCc5ccncc5C4)ccc3C2=O)C(=O)N1` (stereo not shown) [Compound 151] the DC50 was > 1 µM.
In the case of `O=C1CCC(N2Cc3cc(NC(=O)N4Cc5cccc(F)c5C4)ccc3C2=O)C(=O)N1` (stereo not shown) [Compound 202], the DC50 was < 0.1 µM.
For `O=C1CCC(N2Cc3cc(NC(=O)N4Cc5ccccc5C(C(F)(F)F)C4)ccc3C2=O)C(=O)N1` (stereo not shown) [Compound 196], the DC50 was < 0.1 µM.
With `C[C@H]1c2ccccc2[C@H](C)N1C(=O)Nc1ccc2c(c1)CN(C1CCC(=O)NC1=O)C2=O` (stereo partly shown) [Compound 172] the DC50 was < 0.1 µM.
In the case of `CC1(C)Cc2ccccc2N(C(=O)Nc2ccc3c(c2)CN(C2CCC(=O)NC2=O)C3=O)C1` (stereo not shown) [Compound 165], the DC50 was < 0.1 µM.
Compound `O=C1CCC(N2Cc3cc(NC(=O)N4CCN(c5ccccn5)CC4)ccc3C2=O)C(=O)N1` (stereo not shown) [Compound 271] has a DC50 of 0.1 to 1 µM.
`CC(C)c1cccc2c1N(C(=O)Nc1ccc3c(c1)CN(C1CCC(=O)NC1=O)C3=O)CCC2` (stereo not shown) [Compound 155] was tested, and the DC50 was 0.1 to 1 µM.
With `O=C1CCC(N2Cc3cc(NC(=O)N4CCc5cccc(C(F)(F)F)c5C4)ccc3C2=O)C(=O)N1` (stereo not shown) [Compound 212] the DC50 was < 0.1 µM.
With `N#Cc1ccc2c(c1)CCCN2C(=O)Nc1ccc2c(c1)CN(C1CCC(=O)NC1=O)C2=O` (stereo not shown) [Compound 150] the DC50 was 0.1 to 1 µM.
For `O=C1CCC(N2Cc3cc(NC(=O)N4Cc5ccccc5C(F)(F)C4)ccc3C2=O)C(=O)N1` (stereo not shown) [Compound 204], the DC50 was < 0.1 µM.
`O=C1CCC(N2Cc3cc(NC(=O)N4CCCc5ccccc54)ccc3C2=O)C(=O)N1` (stereo not shown) [Compound 107, N-(2-(2,6-dioxopiperidin-3-yl)-1-oxoisoindolin-5-yl)-3,4-dihydroquinoline-1(2H)-carboxamide] was tested, and the DC50 was 0.1 to 1 µM.
For `O=C1CCC(N2Cc3cc(NC(=O)N4CCc5c(F)cccc5C4)ccc3C2=O)C(=O)N1` (stereo not shown) [Compound 184], the DC50 was < 0.1 µM.
`O=C1CCC(N2Cc3cc(NC(=O)N4CCN(c5cnccn5)CC4)ccc3C2=O)C(=O)N1` (stereo not shown) [Compound 254] was tested, and the DC50 was > 1 µM.
For `O=C1CCC(N2Cc3cc(NC(=O)N4CCc5cnccc5C4)ccc3C2=O)C(=O)N1` (stereo not shown) [Compound 207], the DC50 was > 1 µM.
For `O=C1CCC(N2Cc3cc(NC(=O)N4CCc5cccnc5C4)ccc3C2=O)C(=O)N1` (stereo not shown) [Compound 195], the DC50 was 0.1 to 1 µM.
`CC1CN(C(=O)Nc2ccc3c(c2)CN(C2CCC(=O)NC2=O)C3=O)c2ccccc21` (stereo not shown) [Compound 119] was tested, and the DC50 was < 0.1 µM.
For `O=C1CCC(N2Cc3cc(NC(=O)N4CCc5cc(F)ccc5C4)ccc3C2=O)C(=O)N1` (stereo not shown) [Compound 193], the DC50 was < 0.1 µM.
With `O=C1CC[C@H](N2Cc3cc(NC(=O)N4c5ccccc5C[C@H]4C(F)(F)F)ccc3C2=O)C(=O)N1` (single isomer, unassigned) [Compound 361] the DC50 was < 0.1 µM.
For `O=C1CCC(N2Cc3cc(NC(=O)N4CCC5(CC5)C4)ccc3C2=O)C(=O)N1` (stereo not shown) [Compound 274], the DC50 was 0.1 to 1 µM.
For `C[C@@H]1[C@H]2CN(C(=O)Nc3ccc4c(c3)CN(C3CCC(=O)NC3=O)C4=O)C[C@@H]12` (stereo partly shown) [Compound 273], the DC50 was < 0.1 µM.
Work on `O=C1CCC(N2Cc3cc(NC(=O)N4CCCc5c4cccc5C(F)(F)F)ccc3C2=O)C(=O)N1` (stereo not shown) [Compound 160] yielded a DC50 of 0.1 to 1 µM.
`CC1Cc2ccccc2N(C(=O)Nc2ccc3c(c2)CN(C2CCC(=O)NC2=O)C3=O)C1` (stereo not shown) [Compound 153] was tested, and the DC50 was < 0.1 µM.
`Cn1nccc1C1CCCN(C(=O)Nc2ccc3c(c2)CN(C2CCC(=O)NC2=O)C3=O)C1` (stereo not shown) [Compound 250] was tested, and the DC50 was > 1 µM.
`O=C1CCC(N2Cc3cc(NC(=O)N4CCCC4c4ccccc4)ccc3C2=O)C(=O)N1` (stereo not shown) [Compound 264] was tested, and the DC50 was < 0.1 µM.
In the case of `COc1cccc2c1CN(C(=O)Nc1ccc3c(c1)CN(C1CCC(=O)NC1=O)C3=O)C2` (stereo not shown) [Compound 134], the DC50 was < 0.1 µM.
With `N#Cc1ccc2c(c1)CN(C(=O)Nc1ccc3c(c1)CN(C1CCC(=O)NC1=O)C3=O)C2` (stereo not shown) [Compound 133] the DC50 was < 0.1 µM.
For `O=C1CCC(N2Cc3cc(NC(=O)N4CC5CC5c5cc(Br)ccc54)ccc3C2=O)C(=O)N1` (stereo not shown) [Compound 173], the DC50 was < 0.1 µM.
`Cc1cccc2c1N(C(=O)Nc1ccc3c(c1)CN(C1CCC(=O)NC1=O)C3=O)CCC2` (stereo not shown) [Compound 139] showed a DC50 of 0.1 to 1 µM.
With `Cc1ccc(C2CN(C(=O)Nc3ccc4c(c3)CN(C3CCC(=O)NC3=O)C4=O)C2)cc1` (stereo not shown) [Compound 228] the DC50 was < 0.1 µM.
In the case of `Cn1cc(C2CCN(C(=O)Nc3ccc4c(c3)CN(C3CCC(=O)NC3=O)C4=O)C2)cn1` (stereo not shown) [Compound 222], the DC50 was > 1 µM.
In the case of `O=C1CCC(N2Cc3cc(NC(=O)N4CCc5ccccc5C4)ccc3C2=O)C(=O)N1` (stereo not shown) [Compound 104, N-(2-(2,6-dioxopiperidin-3-yl)-1-oxoisoindolin-5-yl)-3,4-dihydroisoquinoline-2(1H)-carboxamide], the DC50 was < 0.1 µM.
Work on `O=C1CCC(N2Cc3cc(NC(=O)N4CCCCC4C4CC4)ccc3C2=O)C(=O)N1` (stereo not shown) [Compound 232] yielded a DC50 of 0.1 to 1 µM.
